According to patent US20210259954A1, “CILIA-TARGETING NANOPARTICLES” (Chapman University, priority 2019, published 2021):

Columns and labels:
[1] = Pharmacokinetics of fenoldopam in mice (Example 1); assay type: in vivo, mouse; details: 30-minute infusion vs bolus of fenoldopam-loaded CTNDDS
Protocol: The pharmacokinetics of different NPs treated mice were studied. […] All drugs were extracted from plasma samples and HPLC analysis performed. In the biodistribution studies, whole organs from the fluorescent-labelled NPs treated mice (heart, kidney, liver, spleen and lung) were collected, homogenized and measured for fluorescence intensity to assess the amount of NP distribution in different organs at 24- and 72-hours after treatments. For the in vivo toxicity studies, 200 μL of blood samples were collected from different treatments (PBS, CT-DAu-NPs or CT-PLGA-NPs). Biochemistry was performed using biochemical analyzer (VetScan VS2).

p-ERK = experiment: Immunoblotting of phosphorylated ERK; assay type: cell-based
Protocol: Immunoblotting. […] Samples were kept on ice during sonication to prevent overheating. Samples were then centrifuged at 15,000 rpm for 20 min, and the supernatants were collected and subjected to protein quantification. The PAGE (polyacrylamide gel electrophoresis) on 6-10% SDS gels was performed followed by semi-dry transfer to PVDF membranes using a Bio-Rad Trans-Blot Turbo Transfer System and detection using antibodies against t-ERK (1:1,000), p-ERK (1:1,000), NOS (1:200), and GAPDH (1:2,000) (Cell Signaling Technology). Blots were scanned with both calorimetry to image molecular markers and chemiluminescence to capture the protein signal intensity using a Bio-Rad imager.

Pkd2 zebrafish = experiment: Pkd2 morphant zebrafish ciliopathy model (Example 1); assay type: in vivo
Protocol: Animal Studies. All animal procedures were performed according to the University of California Irvine or Chapman University Animal Care and Use Committee Guidelines. To eliminate biases and subjective analyses, all animal studies were performed by double-blinded operators. Wild-type zebrafish AB strains were obtained from the Zebrafish International Resource Center. Embryos were injected with 1 mM morpholino oligos (GeneTools) at the 1-2 cell stage and cultured at 28.5° C. in sterile egg water. The following morpholino sequences were used: control scrambled MO: 5′-CCTCTTACCTCAGTTACAATTTATA-3′ (SEQ ID NO:1), Pkd2: 5′-AGGACGAACGCGACTGGGCTCATC-3′ (SEQ ID NO:2). The cardiac function was assessed by placing zebrafish on their dorsal axis to examine the relative locations of the ventricle and bulbus arteriosus, blood circulation and the heartbeat. Measurements of blood flow characteristics and heart parameters were performed using a Nikon Eclipse Ti microscope. NIS-Elements High Content AR 4.30.02 (Nikon) was used for the live tracking of the speed and acceleration of a single blood cell.

[2] = tested on: Tie2Cre⋅Pkd2^flox/flox mice; experiment: Working heart perfusion system, hearts of treated Pkd2 mice (Example 1); assay type: in vivo, mouse; details: for CO, cardiac output / EDPVR, end-diastolic pressure volume relation / EF, ejection fraction / ESPVR, end-systolic pressure volume relation / HR, heart rate / LV EDP, end-diastolic pressure / LV EDV, end-diastolic volume / LV ESP, end-systolic pressure / LV ESV, end-systolic volume / LV Pmax, systolic pressure / SV, stroke volume / SW, stroke work / dP/dtmax, maximum rate of LV pressure rise / dP/dtmin, maximum rate of LV pressure fall: Pkd2 heart
Protocol: One-week-old Tie2Cre⋅Pkd2^WT/WT (with cre activation; control group) or Tie2Cre⋅Pkd2^flox/flox (without cre activation; control group), and Tie2Cre⋅Pkd2^flox/flox (with cre activation; experimental group) mice were injected intra-peritoneally with 5 μg/μL tamoxifen every day for five consecutive days. […] The mice were next injected with PBS (control), CT-DAu-NPs or CT-PLGA-NPs (0.5 to 2.0 mg/kg body weight) via intravenous (IV) injections. […] The mice were treated every 72 hours with different NPs for 8 weeks.
Working Heart Perfusion System. To study heart function independently from neuronal innervation or humoral effect, ex vivo heart parameters were collected using a mouse working heart system from Emka Technologies. This system collected data of the cardiac contractile strength, electrical heart propagation (ECG; electrocardiogram) and other cardiac functions, including the heart rate (HR), left ventricle pressure (LVP), left ventricular volume (LVV), left atrial pressure (LAP), aortic out flow (AOF), stroke volume (SV), cardiac output (CO), end diastolic/systolic volume (Edv-Esv), rate of left atrial pressure raise (+dp/dt) and fall (−dt/dt), preload, afterload, and main aortic pressure. Heparin (100 units, IP), xylazine (10-15 mg/kg, IP), and ketamine (200-350 mg/kg, IP) were used to prevent blood coagulation in the coronary arteries and to anesthetize the mice. After cannulation, the heart was perfused with Krebs-Ringer superfusion solution (in mM: 125 NaCl, 2.5 KCl, 1.25 NaH2PO4, 2 CaCl2, 1 MgCl2, 25 NHCO3 and 25 glucose). Throughout the experiment, the solution was continuously bubbled with carbogen (95% O2 and 5% CO2) to reach 7.4 pH at 38° C. Stress tests were performed in the heart by perfusing epinephrine (4 μg/L) or diltiazem (0.08 μg/L). The cardiac function was plotted in a loop diagram showing the LVV-LVP relationship (volume-pressure loop).

primary cilia = experiment: Ca2+ and NO imaging under fluid shear stress (Example 1); assay type: cell-based; details: fluid shear 0.5 dyn/cm^2, vs corresponding controls
Protocol: Ca^2+ and NO Imaging. For monolayer cell populations, intracellular measurements were obtained. […] After washed to remove excess Fura-2 AM, cytosolic Ca^2+ images were captured every second by recording Ca^2+-bound Fura-2 AM excitation fluorescence at 340/380 nm and emission at 510 nm. For intracellular nitric oxide (NO) measurements, the cells were incubated for 30 minutes at 37° C. with 20 μM DAF-FM (Cayman Chemicals). NO was then measured every second at the excitation and emission wavelengths of 495 and 515 nm, respectively. The cells were placed in PBS during the experiments and observed with a Nikon Eclipse Ti microscope. Fluid shear stress was then applied to cells through InsTech P720 peristaltic pumps with an inlet and outlet setup. The fluid was perfused through cell monolayers at a sub-minimal shear stress of 0.5 dyn/cm^2.
In single-cell studies, cells were grown on 2% Formvar® and transfected with the Ca^2+ fluorescence reporter 5HT6-mCherry-G-GECO1.0 (Addgene) using the JetPrime transfection reagent (Polyplus transfection). The shear stress ranged from 0.01-1.0 dyn/cm^2 and was accurately measured and controlled at all times. […] For these experiments, none of the CT-NPs contained AF594 dye to avoid interference with the mCherry signal. Confocal laser scanning microscopy in fast-scan mode was used to avoid potential excessive photo bleaching. […]

SMILES: Oc1ccc(C2CNCCc3c2cc(O)c(O)c3Cl)cc1 (stereo not shown) [Fenoldopam, fenoldopam]
- total plasma concentration of fenoldopam (area under the curve, one hour) [1]: significantly higher
- ERK phosphorylation (p-ERK): increased ERK phosphorylation
- tolerability of bolus injection (Pkd2 zebrafish): tachycardia-associated death
- CO, cardiac output ([2]; diltiazem stress): 1873 ± 70 µL/min
- EDPVR, end-diastolic pressure volume relation ([2]; diltiazem stress): 0.14 ± 0.01 mmHg/μL
- EF, ejection fraction ([2]; diltiazem stress): 51.6 ± 1.4%
- ESPVR, end-systolic pressure volume relation ([2]; diltiazem stress): 2.3 ± 0.1 mmHg/μL
- HR, heart rate ([2]; diltiazem stress): 98 ± 9 beat/min
- LV EDP, end-diastolic pressure ([2]; diltiazem stress): 5.7 ± 0.2 mmHg
- LV EDV, end-diastolic volume ([2]; diltiazem stress): 40.3 ± 0.8 µL
- LV ESP, end-systolic pressure ([2]; diltiazem stress): 33.5 ± 0.5 mmHg
- LV ESV, end-systolic volume ([2]; diltiazem stress): 19.5 ± 0.6 µL
- LV Pmax, systolic pressure ([2]; diltiazem stress): 44.7 ± 0.7 mmHg
- SV, stroke volume ([2]; diltiazem stress): 20.8 ± 0.8 µL
- SW, stroke work ([2]; diltiazem stress): 812 ± 29 mmHg · μL
- dP/dtmax, maximum rate of LV pressure rise ([2]; diltiazem stress): 4020 ± 643 mmHg/s
- dP/dtmin, maximum rate of LV pressure fall ([2]; diltiazem stress): −1537 ± 97 mmHg/s
- CO, cardiac output ([2]; epinephrine stress): 6810 ± 347 µL/min
- EDPVR, end-diastolic pressure volume relation ([2]; epinephrine stress): 0.16 ± 0.01 mmHg/μL
- EF, ejection fraction ([2]; epinephrine stress): 77.7 ± 2.0%
- ESPVR, end-systolic pressure volume relation ([2]; epinephrine stress): 9.7 ± 0.9 mmHg/μL
- HR, heart rate ([2]; epinephrine stress): 219 ± 44 beat/min
- LV EDP, end-diastolic pressure ([2]; epinephrine stress): 6.4 ± 0.5 mmHg
- LV EDV, end-diastolic volume ([2]; epinephrine stress): 39.9 ± 0.1 µL
- LV ESP, end-systolic pressure ([2]; epinephrine stress): 63.2 ± 0.3 mmHg
- LV ESV, end-systolic volume ([2]; epinephrine stress): 8.9 ± 0.8 µL
- LV Pmax, systolic pressure ([2]; epinephrine stress): 84.3 ± 0.4 mmHg
- SV, stroke volume ([2]; epinephrine stress): 31.1 ± 0.7 µL
- SW, stroke work ([2]; epinephrine stress): 2417 ± 28 mmHg · μL
- dP/dtmax, maximum rate of LV pressure rise ([2]; epinephrine stress): 16864 ± 85 mmHg/s
- dP/dtmin, maximum rate of LV pressure fall ([2]; epinephrine stress): −3843 ± 277 mmHg/s
- CO, cardiac output ([2]; vehicle): 3486 ± 81 µL/min
- EDPVR, end-diastolic pressure volume relation ([2]; vehicle): 0.13 ± 0.01 mmHg/μL
- EF, ejection fraction ([2]; vehicle): 62.5 ± 0.2%
- ESPVR, end-systolic pressure volume relation ([2]; vehicle): 4.4 ± 0.1 mmHg/μL
- HR, heart rate ([2]; vehicle): 140 ± 24 beat/min
- LV EDP, end-diastolic pressure ([2]; vehicle): 5.0 ± 0.1 mmHg
- LV EDV, end-diastolic volume ([2]; vehicle): 40.0 ± 0.1 µL
- LV ESP, end-systolic pressure ([2]; vehicle): 49.7 ± 1.5 mmHg
- LV ESV, end-systolic volume ([2]; vehicle): 15.0 ± 0.1 µL
- LV Pmax, systolic pressure ([2]; vehicle): 66.3 ± 2.0 mmHg
- SV, stroke volume ([2]; vehicle): 24.9 ± 0.1 µL
- SW, stroke work ([2]; vehicle): 1530 ± 20 mmHg · μL
- dP/dtmax, maximum rate of LV pressure rise ([2]; vehicle): 7157 ± 211 mmHg/s
- dP/dtmin, maximum rate of LV pressure fall ([2]; vehicle): −1624 ± 24 mmHg/s
- LVP/LVV abnormalities (P-V loops) ([2]; Pkd2 hearts): Both CTNDDS but not fenoldopam-alone corrected these abnormalities
- arrhythmia (ECG) ([2]; Pkd2 hearts, 8-week treatment): could be corrected with 8-week treatment of CTNDDS but not fenoldopam-alone
- NO biosynthesis (primary cilia): significantly increased
- cytosolic Ca^2+ (primary cilia): significantly increased cytosolic Ca^2+
